In the kinase profiling compilation of Christmann-Franck et al. (2016):

Tests used:
Assay in all cases: KINOMEscan competition binding
Settings in all cases: compound 10.0 µM
[1] = target: ACVR2B (human) (UniProt Q13705)
[2] = target: BTK (human) (UniProt Q06187)
[3] = target: CAMK2G (human) (UniProt Q13555)
[4] = target: CAMK4 (human) (UniProt Q16566)
[5] = target: CDK19 (human) (UniProt Q9BWU1)
[6] = target: CDK9 (human) (UniProt P50750)
[7] = target: CDKL3 (human) (UniProt Q8IVW4)
[8] = target: CSF1R (human) (UniProt P07333)
[9] = target: CSNK1A1L (human) (UniProt Q8N752)
[10] = tested on: EGFR (human), P00533 [T790M/L858R]
[11] = target: EPHA3 (human) (UniProt P29320)
[12] = target: FGFR1 (human) (UniProt P11362)
[13] = target: FYN (human) (UniProt P06241)
[14] = target: GSK3A (human) (UniProt P49840)
[15] = target: IKBKE (human) (UniProt Q14164)
[16] = target: IRAK3 (human) (UniProt Q9Y616)
[17] = target: ITK (human) (UniProt Q08881)
[18] = tested on: KIT (human), P10721 [V559D/V654A]
[19] = target: MAK (human) (UniProt P20794)
[20] = target: MAP2K4 (human) (UniProt P45985)
[21] = target: MAP3K1 (human) (UniProt Q13233)
[22] = target: MAP3K3 (human) (UniProt Q99759)
[23] = target: MAP3K5 (human) (UniProt Q99683)
[24] = target: MAPK4 (human) (UniProt P31152)
[25] = target: MAPK9 (human) (UniProt P45984)
[26] = target: MELK (human) (UniProt Q14680)
[27] = target: MST1R (human) (UniProt Q04912)
[28] = target: MST4 (human) (UniProt Q9P289)
[29] = target: NIM1 (human) (UniProt Q8IY84)
[30] = target: PAK2 (human) (UniProt Q13177)
[31] = target: PIK3CD (human) (UniProt O00329)
[32] = target: PIP4K2B (human) (UniProt P78356)
[33] = target: PIP5K1A (human) (UniProt Q99755)
[34] = target: PRKAA2 (human) (UniProt P54646)
[35] = target: PRKACB (human) (UniProt P22694)
[36] = target: PRKG2 (human) (UniProt Q13237)
[37] = target: RIPK1 (human) (UniProt Q13546)
[38] = target: RPS6KA1 KD2 (human) (UniProt Q15418)
[39] = target: RPS6KA3 KD1 (human) (UniProt P51812)
[40] = target: VRK2 (human) (UniProt Q86Y07)

Chain of NIM1 (human) (Q8IY84 whole entry, looked up): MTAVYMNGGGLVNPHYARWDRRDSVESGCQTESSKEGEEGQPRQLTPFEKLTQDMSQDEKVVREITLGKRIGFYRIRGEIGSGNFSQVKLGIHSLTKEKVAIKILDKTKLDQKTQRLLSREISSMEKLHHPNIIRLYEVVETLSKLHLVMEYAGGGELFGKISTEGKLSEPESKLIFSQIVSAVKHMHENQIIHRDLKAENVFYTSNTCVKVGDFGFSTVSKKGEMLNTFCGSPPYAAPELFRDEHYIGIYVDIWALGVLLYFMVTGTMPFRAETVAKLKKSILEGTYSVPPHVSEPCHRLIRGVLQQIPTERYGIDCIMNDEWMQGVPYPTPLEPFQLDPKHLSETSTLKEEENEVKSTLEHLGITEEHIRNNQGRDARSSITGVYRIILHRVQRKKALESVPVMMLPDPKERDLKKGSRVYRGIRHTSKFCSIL
Chain of KIT (human), P10721 [V559D/V654A] (P10721 whole entry V559D/V654A, looked up): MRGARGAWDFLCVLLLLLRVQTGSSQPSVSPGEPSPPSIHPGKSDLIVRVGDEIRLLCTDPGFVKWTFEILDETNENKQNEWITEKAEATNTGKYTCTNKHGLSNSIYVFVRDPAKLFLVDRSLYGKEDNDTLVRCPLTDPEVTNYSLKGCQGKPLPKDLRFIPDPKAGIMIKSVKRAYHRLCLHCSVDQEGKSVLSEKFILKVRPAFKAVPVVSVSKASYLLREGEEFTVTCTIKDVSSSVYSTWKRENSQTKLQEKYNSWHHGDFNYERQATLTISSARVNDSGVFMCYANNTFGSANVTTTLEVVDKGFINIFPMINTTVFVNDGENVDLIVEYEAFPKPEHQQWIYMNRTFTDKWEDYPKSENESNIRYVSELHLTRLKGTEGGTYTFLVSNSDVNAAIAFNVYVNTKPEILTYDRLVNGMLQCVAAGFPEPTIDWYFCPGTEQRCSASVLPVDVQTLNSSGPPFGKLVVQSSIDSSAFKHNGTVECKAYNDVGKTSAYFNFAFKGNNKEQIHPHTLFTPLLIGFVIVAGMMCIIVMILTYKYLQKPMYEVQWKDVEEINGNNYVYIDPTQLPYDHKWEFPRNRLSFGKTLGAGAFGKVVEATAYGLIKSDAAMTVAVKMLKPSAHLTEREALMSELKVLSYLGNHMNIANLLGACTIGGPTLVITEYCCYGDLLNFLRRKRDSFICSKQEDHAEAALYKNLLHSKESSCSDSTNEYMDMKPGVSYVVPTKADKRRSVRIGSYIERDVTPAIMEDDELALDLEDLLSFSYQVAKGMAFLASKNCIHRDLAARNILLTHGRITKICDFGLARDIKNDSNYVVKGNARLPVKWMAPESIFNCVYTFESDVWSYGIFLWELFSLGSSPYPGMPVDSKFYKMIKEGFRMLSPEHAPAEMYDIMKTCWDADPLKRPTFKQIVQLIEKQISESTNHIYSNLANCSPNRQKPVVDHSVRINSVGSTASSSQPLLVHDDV
Chain of MAPK4 (human) (P31152 whole entry, looked up): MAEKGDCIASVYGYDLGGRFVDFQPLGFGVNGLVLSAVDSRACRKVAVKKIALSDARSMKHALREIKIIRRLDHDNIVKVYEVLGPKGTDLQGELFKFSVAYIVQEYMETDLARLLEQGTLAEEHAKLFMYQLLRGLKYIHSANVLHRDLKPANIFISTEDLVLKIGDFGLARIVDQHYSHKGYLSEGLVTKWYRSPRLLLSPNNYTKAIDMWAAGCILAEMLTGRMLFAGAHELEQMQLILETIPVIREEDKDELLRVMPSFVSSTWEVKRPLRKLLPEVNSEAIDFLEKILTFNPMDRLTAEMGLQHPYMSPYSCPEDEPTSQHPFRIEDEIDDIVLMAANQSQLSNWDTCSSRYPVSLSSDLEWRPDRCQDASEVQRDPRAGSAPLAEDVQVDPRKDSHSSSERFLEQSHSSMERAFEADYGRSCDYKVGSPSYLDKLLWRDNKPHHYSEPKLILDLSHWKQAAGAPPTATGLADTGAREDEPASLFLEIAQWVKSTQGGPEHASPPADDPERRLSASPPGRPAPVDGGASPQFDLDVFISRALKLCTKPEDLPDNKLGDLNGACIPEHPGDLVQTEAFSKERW
Chain of PAK2 (human) (Q13177 whole entry, looked up): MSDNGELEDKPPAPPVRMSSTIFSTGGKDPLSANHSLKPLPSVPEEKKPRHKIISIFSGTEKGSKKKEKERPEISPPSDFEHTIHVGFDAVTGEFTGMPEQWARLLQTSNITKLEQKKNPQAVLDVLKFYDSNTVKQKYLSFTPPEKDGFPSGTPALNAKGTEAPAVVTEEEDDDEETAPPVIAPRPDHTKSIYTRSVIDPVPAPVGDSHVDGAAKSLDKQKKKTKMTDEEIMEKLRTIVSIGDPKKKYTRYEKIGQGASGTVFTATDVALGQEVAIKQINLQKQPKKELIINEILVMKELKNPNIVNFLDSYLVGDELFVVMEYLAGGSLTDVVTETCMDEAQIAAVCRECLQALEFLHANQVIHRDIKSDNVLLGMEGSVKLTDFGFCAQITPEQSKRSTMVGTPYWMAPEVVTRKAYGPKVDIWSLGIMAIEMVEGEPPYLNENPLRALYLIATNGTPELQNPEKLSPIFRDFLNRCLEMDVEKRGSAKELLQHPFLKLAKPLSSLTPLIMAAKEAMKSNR
Chain of CDK19 (human) (Q9BWU1 whole entry, looked up): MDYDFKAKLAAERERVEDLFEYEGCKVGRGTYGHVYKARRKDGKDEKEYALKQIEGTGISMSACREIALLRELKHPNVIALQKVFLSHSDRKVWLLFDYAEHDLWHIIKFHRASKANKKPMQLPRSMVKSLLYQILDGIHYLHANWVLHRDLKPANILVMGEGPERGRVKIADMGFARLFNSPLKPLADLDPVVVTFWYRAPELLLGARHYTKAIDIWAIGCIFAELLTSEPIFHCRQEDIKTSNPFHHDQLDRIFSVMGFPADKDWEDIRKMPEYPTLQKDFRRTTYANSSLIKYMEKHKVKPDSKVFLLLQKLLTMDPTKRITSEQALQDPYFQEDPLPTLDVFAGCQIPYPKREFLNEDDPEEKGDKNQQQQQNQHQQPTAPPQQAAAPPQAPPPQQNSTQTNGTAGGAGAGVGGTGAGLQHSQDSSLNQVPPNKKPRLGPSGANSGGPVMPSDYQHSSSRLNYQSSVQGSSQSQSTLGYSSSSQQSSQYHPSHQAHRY
Chain of PIP4K2B (human) (P78356 whole entry, looked up): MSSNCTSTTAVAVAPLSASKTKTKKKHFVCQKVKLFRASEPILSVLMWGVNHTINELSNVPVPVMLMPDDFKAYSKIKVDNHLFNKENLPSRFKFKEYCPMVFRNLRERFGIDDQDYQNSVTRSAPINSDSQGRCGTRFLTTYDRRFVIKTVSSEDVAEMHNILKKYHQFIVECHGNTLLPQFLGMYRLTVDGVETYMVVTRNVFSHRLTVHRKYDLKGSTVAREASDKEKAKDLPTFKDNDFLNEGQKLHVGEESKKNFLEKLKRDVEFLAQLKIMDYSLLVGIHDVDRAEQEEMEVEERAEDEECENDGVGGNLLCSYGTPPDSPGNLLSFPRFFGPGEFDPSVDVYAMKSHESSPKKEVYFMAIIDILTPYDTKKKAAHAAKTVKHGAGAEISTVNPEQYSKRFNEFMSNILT
Chain of CDK9 (human) (P50750 whole entry, looked up): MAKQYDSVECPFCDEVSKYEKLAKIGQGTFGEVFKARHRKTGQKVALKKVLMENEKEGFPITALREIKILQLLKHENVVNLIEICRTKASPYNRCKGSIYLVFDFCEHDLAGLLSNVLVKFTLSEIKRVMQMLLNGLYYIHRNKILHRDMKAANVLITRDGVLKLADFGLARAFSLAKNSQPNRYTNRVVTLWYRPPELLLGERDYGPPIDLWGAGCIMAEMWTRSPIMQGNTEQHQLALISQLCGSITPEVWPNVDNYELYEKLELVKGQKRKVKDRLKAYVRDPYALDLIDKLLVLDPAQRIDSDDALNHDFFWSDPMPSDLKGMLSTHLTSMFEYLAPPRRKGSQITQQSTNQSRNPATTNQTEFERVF
Chain of PIK3CD (human) (O00329 whole entry, looked up): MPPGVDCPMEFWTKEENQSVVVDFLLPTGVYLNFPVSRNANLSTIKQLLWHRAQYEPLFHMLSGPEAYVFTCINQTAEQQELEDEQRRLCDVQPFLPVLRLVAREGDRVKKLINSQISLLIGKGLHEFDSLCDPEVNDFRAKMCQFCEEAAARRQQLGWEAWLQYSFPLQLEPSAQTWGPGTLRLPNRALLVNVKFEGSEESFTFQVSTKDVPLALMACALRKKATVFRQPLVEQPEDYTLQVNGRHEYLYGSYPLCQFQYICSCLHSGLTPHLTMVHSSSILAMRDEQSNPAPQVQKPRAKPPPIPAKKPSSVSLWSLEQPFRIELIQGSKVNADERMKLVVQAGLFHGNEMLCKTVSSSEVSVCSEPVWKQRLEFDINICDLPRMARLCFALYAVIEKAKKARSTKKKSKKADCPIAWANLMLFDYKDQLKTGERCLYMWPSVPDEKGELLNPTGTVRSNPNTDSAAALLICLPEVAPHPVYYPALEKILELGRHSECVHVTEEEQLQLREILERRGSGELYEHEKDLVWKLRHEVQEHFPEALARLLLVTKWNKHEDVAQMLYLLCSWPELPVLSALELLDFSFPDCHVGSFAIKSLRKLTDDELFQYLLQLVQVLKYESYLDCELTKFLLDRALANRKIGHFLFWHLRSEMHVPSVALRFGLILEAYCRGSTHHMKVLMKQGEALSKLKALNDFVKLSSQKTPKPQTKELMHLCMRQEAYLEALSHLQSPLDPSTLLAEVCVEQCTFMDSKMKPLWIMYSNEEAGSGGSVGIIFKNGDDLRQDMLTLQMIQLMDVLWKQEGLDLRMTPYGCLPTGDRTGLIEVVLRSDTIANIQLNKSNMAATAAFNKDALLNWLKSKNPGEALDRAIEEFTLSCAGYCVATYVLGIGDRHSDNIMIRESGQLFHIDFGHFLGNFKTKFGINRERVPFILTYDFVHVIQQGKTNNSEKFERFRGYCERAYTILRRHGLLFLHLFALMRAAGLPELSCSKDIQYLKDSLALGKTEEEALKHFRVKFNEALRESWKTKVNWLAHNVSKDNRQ

SMILES | kinase still bound, per cent of control [1] | kinase still bound, per cent of control [2] | kinase still bound, per cent of control [3] | kinase still bound, per cent of control [4] | kinase still bound, per cent of control [5] | kinase still bound, per cent of control [6] | kinase still bound, per cent of control [7] | kinase still bound, per cent of control [8] | kinase still bound, per cent of control [9] | kinase still bound, per cent of control [10] | kinase still bound, per cent of control [11] | kinase still bound, per cent of control [12] | kinase still bound, per cent of control [13] | kinase still bound, per cent of control [14] | kinase still bound, per cent of control [15] | kinase still bound, per cent of control [16] | kinase still bound, per cent of control [17] | kinase still bound, per cent of control [18] | kinase still bound, per cent of control [19] | kinase still bound, per cent of control [20] | also measured
CCN1CCN(C(=O)Cc2ccc(Nc3ncc(F)c(Nc4ccc(C(=O)Nc5ccccc5Cl)cc4)n3)cc2)CC1 | 38% | 27% | 55% | 100% | 76% | 73% | 89% | 6.5% | 100% | 76% | 62% | 14% | 41% | 88% | 100% | 1.8% | 52% | 84% | 100% | 49% | kinase still bound, per cent of control [21]: 97%; kinase still bound, per cent of control [22]: 49%; kinase still bound, per cent of control [23]: 100%; kinase still bound, per cent of control [24]: 82%; kinase still bound, per cent of control [25]: 0.75%; kinase still bound, per cent of control [26]: 55%; kinase still bound, per cent of control [27]: 100%; kinase still bound, per cent of control [28]: 43%; kinase still bound, per cent of control [29]: 79%; kinase still bound, per cent of control [30]: 56%; kinase still bound, per cent of control [31]: 41%; kinase still bound, per cent of control [32]: 1.6%; kinase still bound, per cent of control [33]: 0%; kinase still bound, per cent of control [34]: 39%; kinase still bound, per cent of control [35]: 76%; kinase still bound, per cent of control [36]: 62%; kinase still bound, per cent of control [37]: 96%; kinase still bound, per cent of control [38]: 45%; kinase still bound, per cent of control [39]: 32%; kinase still bound, per cent of control [40]: 100%
COc1cc2ncnc(-n3nc(-c4ccccn4)nc3N)c2cc1OC | 49% | 51% | 56% | 100% | 100% | 76% | 5.3% | 52% | 32% | 84% | 11% | 65% | 25% | 73% | 9.6% | 12% | 100% | 82% | 100% | 3.8% | kinase still bound, per cent of control [21]: 66%; kinase still bound, per cent of control [22]: 48%; kinase still bound, per cent of control [23]: 100%; kinase still bound, per cent of control [24]: 85%; kinase still bound, per cent of control [25]: 1.5%; kinase still bound, per cent of control [26]: 9.2%; kinase still bound, per cent of control [27]: 100%; kinase still bound, per cent of control [28]: 68%; kinase still bound, per cent of control [29]: 89%; kinase still bound, per cent of control [30]: 37%; kinase still bound, per cent of control [31]: 5%; kinase still bound, per cent of control [32]: 44%; kinase still bound, per cent of control [33]: 6.4%; kinase still bound, per cent of control [34]: 27%; kinase still bound, per cent of control [35]: 100%; kinase still bound, per cent of control [36]: 75%; kinase still bound, per cent of control [37]: 86%; kinase still bound, per cent of control [38]: 14%; kinase still bound, per cent of control [39]: 2.8%; kinase still bound, per cent of control [40]: 9.8%
